Results reported in patent US20110059953A1, “COMPOUNDS FOR USE IN STABILIZING P53 MUTANTS” (priority 2008, published 2011).

Columns and labels:
T-p53C-Y220C [1] = target: T1, T-p53C-Y220C (Homo sapiens, UniProt P04637, M133L/N239Y/N268D/V203A/Y220C); assay: Melting temperature of T-p53C-Y220C, method not stated; format: binding
T1 construct: For all other experiments, the DNA coding for residues 94-312 of T-p53C was inserted into a modified pET24a(+) vector; 6xHis tag + B. stearothermophilus dihydrolipoyl acetyltransferase lipoyl domain (aa 1-85) + TEV site (N, cleaved yes); made in house; host or cells: Escherichia coli BL21 (DE3) or C41 (DE3)

T-p53C-Y220C [2] = target: T1, T-p53C-Y220C; assay: 1H/15N-HSQC NMR chemical shift binding (KD NMR)
Experimental: Uniformly ^15N-labelled core domains of T-p53C-Y220C was expressed and purified according to the above described protocol. The low molecular-weight compounds were dissolved in d^6-DMSO to make 10 mM stock solutions. To screen compound mixtures by chemical shift mapping, 10 μl of each of 4 different compounds were mixed together and 25 μl of this mixture was added to 25 μl of D2O and 500 μl of 70 μM T-p53C-Y220C (in 25 mM NaPi, 150 mM NaCl and 5 mM DTT, pH 7.2 ). […] NMR samples were freshly prepared and kept sealed under argon after degassing by repeated cycles of pumping the NMR tube under low pressure (while gently tapping the tube) and returning to atmospheric pressure using a stream of argon gas. This was done to maintain sample stability.
Using Bruker's TopSpin 2.0 software, the number of complex points in t1 was doubled by forward complex linear prediction and shifted squared sine bell window functions were applied to both dimensions prior to zero filling and Fourier transformation. A digital resolution of 2.0 Hz/point in the ^1H frequency dimension and 4.7 Hz/point in the ^15N frequency dimension was used. […] An in-house script was used to analyse chemical shift differences and map these onto PDB protein structures.
For certain compounds an array of different concentrations were used to derive KD values (KD NMR) by fitting a saturation binding equation (Δδ=c+a*[L]/(KD+[L])) to the concentration-dependent chemical shift changes of the relevant shifting peaks.

T-p53C-Y220C [3] = target: T1, T-p53C-Y220C; assay: Thermal denaturation using capillary DSC; format: binding; conditions: for ΔTm: increase in Tm on adding 250 μM of the test compound, 20 μM protein
Experimental: Differential Scanning calorimetry (DSC) was used to probe the stabilising effect of the ligands on […]. For a reversible two-state system, the melting temperature, Tm, is the transition temperature where the folded and unfolded states are equally populated.
DSC experiments were performed using a Microcal VP-Capillary DSC instrument (Microcal, Amherst, Mass.) with an active cell volume of ˜125 μl. Protein samples were buffer exchanged into 25 mM NaPi, pH 7.2, 150 mM NaCl, 5 mM DTT. This buffer + the respective concentration of ligand/DMSO was used for baseline scans, so that the only difference between sample and reference cell or sample cell in the measurement and both cells in the baseline scan is the presence of the protein. A final concentration of 20 μM T-p53C-Y220C was used. A pressure of 2.5 bars (nitrogen) was applied to the cell. Temperatures from 10 to 85° C. were scanned at a rate of 250° C./h, with a filtering period of 4 seconds and feedback gain/mode set at medium. Data were analysed with ORIGIN software (Microcal).
The following tables show the results of the thermal denaturation studies using capillary DSC, where ΔTm is the increase in Tm on adding 250 μM of the test compound. The Dunnett significance test (P) value given is the calculated probability that the change in Tm is insignificant.

T-p53C-Y220C [4] = target: T1, T-p53C-Y220C; assay: Equilibrium sedimentation analytical ultracentrifugation (AUC) binding
From the text: Analytical centrifugation studies the distribution of molecules under gravity force. In equilibrium sedimentation experiment the solute concentrates at the bottom of the cell and forms a concentration gradient. The steepness of this gradient depends on the molecular weight of the solute, the heavier the molecule the steeper the gradient. Small molecules have a molecular weight around 500 Da, and p53 core domain is large protein molecule of 24.5 kDa. Under the experimental conditions chosen, small molecules form a very shallow, practically negligible gradient, while p53 presents a very well defined sedimentation profile. […] By monitoring the distribution of the small molecule via absorbance at wavelengths above 300 nm (the ligands must absorb light in this spectral range for the method to work) so that signal is not affected by the absorbance of the protein (e.g., 310, 340 and 380 nm), it is possible to determine if the small molecule binds to the protein, and in many cases measure the dissociation constant. […]
Equilibrium sedimentation experiments were performed on a Beckman XL-I ultracentrifuge using Ti-50 rotor and 6-sector cells. at speeds of 30,000 and 40,000 rpm at 10° C. Up to 21 samples were analysed simultaneously. […] The samples contained ligand at concentration of 15 μM-40 μM, with absorbance of 0.3-0.5 at one of the selected wavelengths and 100 μM T-p53-Y220C.

T-p53C-Y220C [5] = target: T1, T-p53C-Y220C; assay: Thermal denaturation using fluorescence (Sypro Orange); format: binding; conditions: further studies on compounds described above; 10 μM protein
Experimental: This was by an adaption of the classical procedure (e.g. ref A6). Thermal unfolding was monitored by the binding of the dye Sypro Orange (5×) using a Rotor-gene 6000 (Corbett Life Science) at 270 K/h in 25 mM NaPi, 150 mM NaCl and 5 mM DTT, pH 7.2 with a protein concentration of 10 μM.
(§1) Where listed, S.E. is the calculated standard error.
as §1

[6] = KD (@ 20° C.) μM, further NMR studies, some revised values

| effect on melting temperature (T-p53C-Y220C [1]) | Kd (T-p53C-Y220C [2]; [6]) | Kd (T-p53C-Y220C [2]; KD (@ 20° C.), 1H/15N-HSQC) | Kd (T-p53C-Y220C [3]; at 316-318 K, read-out: approximate KD from DSC stabilization fit) | ΔTm (T-p53C-Y220C [3]) | Kd (T-p53C-Y220C [4]) | ΔTm (° C.) (T-p53C-Y220C [5]) | SMILES |
| --- | --- | --- | --- | --- | --- | --- | --- |
| raise its melting temperature |  |  |  |  |  |  | NC(=O)c1c[nH]c2ccccc12 [1H-indole-3-carboxamide] |
|  | 114 µM | 167 µM | ~140 µM | 0.75 °C | 170 µM | 0.76 °C | CCn1c2ccccc2c2cc(CNC)ccc21 [PK083] |
|  | 113 µM |  |  | 1.11 °C |  | 1.0 °C | CCn1c2ccccc2c2cc(C3CC4CN(C)C(=O)C45CCCN35)ccc21 (stereo not shown) [PK226] |
